Measurements reported in patent publication US5594001A, “Polycyclic systems, and derivatives thereof, as neurotransmitter release enhancers useful in the treatment of cognitive disorders” (The DuPont Merck Pharmaceutical Company, priority 1994, dated 1997).

Tests used:
[1] = test system: stimulus-induced acetylcholine release, slices from the parietal cortex; assay: Neurotransmitter (ACh) release assay, rat cortex slices, K+ stimulated; assay type: cell-based, rat (male Wistar); conditions: for activation at 10 µM: Table II, % increase of drug-induced ACh release; for EC50: Table III
Method: The neurotransmitter release activities of the compounds of this invention were determined using standard biochemical assay procedures for example, the neurotransmitter release assay as described below.
Neurotransmitter release assay.
The neurotransmitter (Ach) release activities of the compounds of this invention were determined by the assay as described by Nickolson, et al., Drug Development Research, (1990) 19: 285-300, a modification of the procedure described by Mulder, et al., Brain Res., (1974) 70: 372.
Male Wistar rats (Charies River) weighing 175-200 grams were used. Rats were decapitated and brains were dissected immediately. Slices (0.3 mm thick) from the parietal cortex were prepared (approximately 100 mg wet weight) and were incubated in 10 ml KrebsRinger medium (KR) containing NaCl (116 mM), KCl (3 mM), CaCl2 (1.3 mM), MgCl2 (1.2 mM), KH2 PO4 (1.2 mM), Na2 SO4 (1.2 mM), NaHCO3 (25.0 mM), and glucose (11.0 mM), to which was added 10 uCi ^3 H-choline (specific activity approximately 35 Ci/mM; NEN) and […] unlabeled choline to give a final concentration of one micromole. The brain preparations were incubated for 30 min. at 37° C. under a steady flow of 95% O2 /5% CO2. Under these conditions, part of the radioactive choline taken up by the preparation was converted into radioactive acetylcholine (ACh) by the cholinergic nerve endings stored in synaptic vesicles, and released upon depolarization by high potassium ion (K+) containing media.
After labelling of the ACh stores, the slices were washed three times with non-radioactive KR medium and transferred to a superfusion apparatus to measure the drug effects on ACh release. The superfusion apparatus consisted of 10 thermostated glass columns of 5 mm diameter that were provided with GF/F glass fiber filters to support the slices (approximately 10 mg tissue/column). Superfusion was carried out in KR-medium (0.3 ml/min.) containing […] hemicholine-3 (HC-3). The HC-3 prevents the reuptake of choline formed during the superfusion from phospholipids and released ACh, which would be converted into unlabeled ACh and released in preference to the preformed labeled ACh. The medium was delivered by a 25-channel peristaltic pump (Ismatec by Brinkman) and warmed to 37° C. in a thermostated stainless steel coil before entering the superfusion column. Each column was provided with a 4-way slider valve (Beckmann instruments) which allowed rapid change of low to high K+/KR-medium, and with two 10-channel 3-way valves that were used to change from drug-free to drug-containing low and high K+/KR-medium. After 15 min. of washout of non-specifically bound radioactivity, collection of 4 min. fractions was initiated. After three 4 min. collections, the original medium was changed to a KR-medium in which the KCl concentration had been increased to 25 mM (high K+ medium) (S1). Depolarization-induced stimulation of release by high K+/KR-medium lasted for 4 min. Drug free low and high K+/KR-media were then substituted by drug- and vehicle-containing low- and high-K+/KR-medium, and superfusion was continued for three 4 min. collections with low K+/KR-medium, one 4 min. collection with high K+/KR-medium (s2), and two 4 min. collections with low K+/KR-medium.
Drug was added to the media by 100-fold dilutions of appropriate concentrations of the drug (in 0.9% saline) with either low- or high-K+/KR-medium. For comparative purposes, linopirdine was also run.
All superfusion fractions were collected in liquid scintillation counting vials. After superfusion, the slices were removed from the superfusion columns and extracted with 1.0 ml of 0.1N HCl. Liquiscint (NEN) counting fluid (12 ml) was added to superfusion fractions and extracts, and the samples were counted in a Packard Tricarb Liquid Scintillation Counter. No corrections were made for quenching. […]

[2] = test system: memory disruption induced by hypoxia, male CD rats; assay: Rat Passive Avoidance (PA) Hypoxia Induced Amnesia; assay type: in vivo, rat (male CD); conditions: Table II; SC; median retention latency vs vehicle
From the text: Rat Passive Avoidance (PA) Hypoxia Induced Amnesia:
Unfasted male CD rats, weighing between 165-210 grams, were trained in a PA apparatus using the following procedure: rats were placed in the clear side of the two compartment chamber and allowed 90 seconds to enter the dark compartment. Ten seconds after entering the dark chamber, a 3 second footshock (1.0 mA) was applied to the grid floor followed by an additional 10 second delay, and another 3 second footshock was applied. Retentions were tested 4 hours later. The rats were allowed 300 seconds to enter the dark compartment; time was taken. Memory disruption was induced by exposing the rats to a gas mixture containing 6.5% oxygen supplemented with nitrogen for 30 minutes before passive avoidance training. Doses of the test compound were administered (0.1 ml/100 g, SC.) relative to time of PA training.

[3] = test system: ACh level in the rat hippocampus; assay: Microdialysis, ACh levels in the rat hippocampus in vivo; parameters: species or system rat (male Wistar); conditions: Table IV
Method: Male Wistar Rats are anaesthetized and guide cannulas stereotaxically implanted into the brain at the level of the dorsal hippocampus. Following a minimum recovery period of 72 h, dialysis probes (0.5 mm diameter, 4.0 mm long, from BAS) are inserted into the hippocampus through the guide cannulas. The probes are perfused at a rate of 2 μl/min with artificial cerebrospinal fluid containing 100 μM physostigmine sulfate (a cholinesterase inhibitor). Rats are allowed to acclimate for 2 hours prior to sample collection. Dialysate samples are collected every 20 min (40 μl) and immediately injected onto a high performance liquid chromatograph equipped for electrochemical detection (HPLC-EC) of acetylcholine (ACh). Following collection of 3 baseline samples, drugs or vehicle control are administered in 0.01 ml/g body weight and dialysate samples are collected for an additional 3 h. The ACh peak heights of the 3 samples prior to drug administration are averaged together to determine baseline ACh levels. ACh peak heights post drug administration are measured and used to determine percent change over baseline ACh levels. At the end of experiments, probe placement is verified histologically.
ACh is separated by reverse phase chromatography (Hamilton PRP-1 column 150×4.5 mm) and converted to acetate, betaine and hydrogen peroxide on an immobilized enzyme reactor column (BAS). Hydrogen peroxide is then detected electrochemically. Mobile phase for the chromatography consists of 0.2M Na2 HPO4, 0.1 mM EDTA, 0.5 mM SOS, 0.9 mM TMA.Cl, with pH adjusted to 8.0 with phosphoric acid and […] Kathon CG (ESA) added to each liter of mobile phase to retard bacterial growth.
FIGS. 1 and 2 show the effects of fluorine substitution to the pendant groups of the anthrone and azafluorene core series on the ability of compounds to increase the level of ACh in the rat hippocampus in vivo. All compounds were tested at 5 mg/kg except Ex. No 64 which was administered at 1 mg/kg. […] This was observed even though the compound was administered by a route (i.p.) which should lead to greater bioavailability than the oral route. Example 68 of the present invention, the bis-fluorinated analog of Example 611 or U.S. Pat. No. 5,173,489, on the other hand, led to a 2-fold increase in ACh levels which was maintained for over 1 hour (FIG. 1). The anthrone compound Ex. No. 440 of U.S. Pat. No. 5,173,489, at 5 mg/kg, led to a peak ACh level of 72% over baseline (FIG. 2). Ex. No. 64 of the present invention, which is the bis-fluoro analog of Ex. No. 440 of U.S. Pat. No. 5,173,489, at 1 mg/kg, led to a delayed increase in ACh levels reaching a peak of over 100% above baseline (FIG. 2). In contrast to the observed effects of Example 440 of U.S. Pat. No. 5,173,489, the increase in ACh level after administration of Example 64 of the present invention was maintained for the entire duration of testing (3 hours).

[4] = 5 mg/kg, vehicle water, NSP = no significant points
[5] = 5 mg/kg, vehicle methocel, NSP = no significant points

c1ccc(Cn2ncc3c2-c2ccccc2C3(Cc2ccncc2)Cc2ccncc2)cc1 [Example 14, 1,4-Dihydro-1-(phenylmethyl)-4,4-bis(4-pyridinylmethyl)indeno[1,2-C]pyrazol]
activation at 10 µM [1]: 533%
PA Hypoxia [2]: Active

Fc1cc(CC2(Cc3ccnc(F)c3)c3cccnc3-c3sccc32)ccn1 [Example 69, 4,4-Bis((2-fluoro-4-pyridinyl)methyl)-4H-thieno[3',2':4,5]cyclopenta[1,2-b]pyridine]
AUC, Area % under the curve ([3]; 5 mg/kg, vehicle water): 285 ± 40%
Peak, maximal % increase of ACh release over baseline ([3]; 5 mg/kg, vehicle water): 44 ± 14%
time of Peak after administration ([3]; 5 mg/kg, vehicle water): 20 min
Duration, minutes of release above statistical significance [3, 4]: 40 min
EC50 [1]: 650 nM

COc1ccc2c(c1)C(Cc1ccnc(F)c1)(Cc1ccnc(F)c1)c1ccccc1-2 [Example 71, 9,9-Bis((2-fluoro-4-pyridinyl)methyl)-2-methoxyfluorene]
AUC, Area % under the curve ([3]; 5 mg/kg, vehicle methocel): 126 ± 74%
Peak, maximal % increase of ACh release over baseline ([3]; 5 mg/kg, vehicle methocel): 34 ± 16%
time of Peak after administration ([3]; 5 mg/kg, vehicle methocel): 60 min
Duration, minutes of release above statistical significance [3, 5]: NSP
EC50 [1]: 1240 nM

COc1ccc2c(c1)C(Cc1ccnc(F)c1)(Cc1ccnc(F)c1)c1cccnc1O2 [Example 72, 9,9-Bis((2-fluoro-4-pyridinyl)methyl)-7-methoxy-4-azaxanthene]
AUC, Area % under the curve ([3]; 5 mg/kg, vehicle methocel): 138 ± 109%
Peak, maximal % increase of ACh release over baseline ([3]; 5 mg/kg, vehicle methocel): 34 ± 22%
time of Peak after administration ([3]; 5 mg/kg, vehicle methocel): 60 min
Duration, minutes of release above statistical significance [3, 5]: NSP
EC50 [1]: 850 nM

Fc1cc(CC2(Cc3ccnc(F)c3)c3cccnc3-c3cccnc32)ccn1 [Example 75, 9,9-Bis((2-fluoro-4-pyridinyl)methyl)-cyclopenta[1,2-b:3,4-b']dipyridine]
AUC, Area % under the curve ([3]; 5 mg/kg, vehicle methocel): 302 ± 35%
Peak, maximal % increase of ACh release over baseline ([3]; 5 mg/kg, vehicle methocel): 67 ± 12%
time of Peak after administration ([3]; 5 mg/kg, vehicle methocel): 20 min
Duration, minutes of release above statistical significance [3, 5]: 60 min
EC50 [1]: 1210 nM

Fc1cc(CC2(Cc3ccnc(F)c3)c3ccccc3-c3nc(-c4ccccc4)ncc32)ccn1 [Example 76, 5,5-Bis((2-fluoro-4-pyridinyl)methyl)-2-phenyl-5H-indeno[1,2-d]pyrimidine]
AUC, Area % under the curve ([3]; 5 mg/kg, vehicle methocel): 96 ± 67%
Peak, maximal % increase of ACh release over baseline ([3]; 5 mg/kg, vehicle methocel): 39 ± 25%
time of Peak after administration ([3]; 5 mg/kg, vehicle methocel): 20 min
Duration, minutes of release above statistical significance [3, 5]: NSP
EC50 [1]: 660 nM

Fc1cc(CC2(Cc3ccnc(F)c3)c3ccccc3-c3ncncc32)ccn1 [Example 81, 5,5-Bis((2-fluoro-4-pyridinyl)methyl)-5H-indeno-[1,2-d]pyrimidine]
AUC, Area % under the curve ([3]; 5 mg/kg, vehicle methocel): 250 ± 68%
Peak, maximal % increase of ACh release over baseline ([3]; 5 mg/kg, vehicle methocel): 53 ± 17%
time of Peak after administration ([3]; 5 mg/kg, vehicle methocel): 60 min
Duration, minutes of release above statistical significance [3, 5]: 100 min
EC50 [1]: 640 nM

Fc1cc(CC2(Cc3ccnc(F)c3)c3cccnc3-c3ncccc32)ccn1 [Example 97, 5,5-Bis((2-fluoro-4-pyridinyl)methyl)-5H-cyclopenta[2,1-b:3,4-b']dipyridine]
AUC, Area % under the curve ([3]; 10 mg/kg, vehicle methocel): 649 ± 188%
Duration, minutes of release above statistical significance ([3]; 10 mg/kg, vehicle methocel): 120 min
Peak, maximal % increase of ACh release over baseline ([3]; 10 mg/kg, vehicle methocel): 102 ± 29%
time of Peak after administration ([3]; 10 mg/kg, vehicle methocel): 100 min
EC50 [1]: 2620 nM

O=C1N(c2ccccc2)c2ccccc2C1(Cc1ccncc1)Cc1ccncc1 [linopirdine, 3,3-bis-(4-pyridinylmethyl)-1-phenylindolin-2-one, reference compound]
AUC, Area % under the curve ([3]; 5 mg/kg, vehicle water): 83 ± 73%
Peak, maximal % increase of ACh release over baseline ([3]; 5 mg/kg, vehicle water): 50 ± 16%
time of Peak after administration ([3]; 5 mg/kg, vehicle water): 40 min
Duration, minutes of release above statistical significance [3, 4]: 20 min
AUC, Area % under the curve ([3]; 10 mg/kg, vehicle methocel): 212 ± 61%
Duration, minutes of release above statistical significance ([3]; 10 mg/kg, vehicle methocel): 100 min
Peak, maximal % increase of ACh release over baseline ([3]; 10 mg/kg, vehicle methocel): 62 ± 15%
time of Peak after administration ([3]; 10 mg/kg, vehicle methocel): 40 min
AUC, Area % under the curve ([3]; 10 mg/kg, vehicle water): 191 ± 68%
Duration, minutes of release above statistical significance ([3]; 10 mg/kg, vehicle water): 60 min
Peak, maximal % increase of ACh release over baseline ([3]; 10 mg/kg, vehicle water): 56 ± 7%
time of Peak after administration ([3]; 10 mg/kg, vehicle water): 40 min
AUC, Area % under the curve ([3]; 20 mg/kg, vehicle methocel): 600 ± 71%
Duration, minutes of release above statistical significance ([3]; 20 mg/kg, vehicle methocel): 140 min
Peak, maximal % increase of ACh release over baseline ([3]; 20 mg/kg, vehicle methocel): 117 ± 36%
time of Peak after administration ([3]; 20 mg/kg, vehicle methocel): 40 min
AUC, Area % under the curve ([3]; 20 mg/kg, vehicle water): 315 ± 108%
Duration, minutes of release above statistical significance ([3]; 20 mg/kg, vehicle water): 100 min
Peak, maximal % increase of ACh release over baseline ([3]; 20 mg/kg, vehicle water): 68 ± 26%
time of Peak after administration ([3]; 20 mg/kg, vehicle water): 100 min
activation at 10 µM [1]: 408%
PA Hypoxia [2]: Active
